Data on one compound can be found in article PMC8747035, “Design, Synthesis, and Biological Evaluation of 5,6,7,8-Tetrahydrobenzo[4,5]thieno[2,3-d]pyrimidines as Microtubule Targeting Agents” (Molecules, 2022).

What is called EC50 is the concentration needed to bring the measured effect to its halfway point. Low readings indicate higher potency in that assay, high ones lower potency in that assay. By IC50 is commonly meant the point on the concentration scale where inhibition reaches its midpoint. The term GI50 denotes the concentration giving 50% growth inhibition. Read a high GI50 as less potent growth inhibition.

One data set relates to A-10 cells. The data set can be described thus: Cellular microtubule depolymerization in A-10 cells (immunofluorescence). The class given is cell-based. The settings on record: Rattus norvegicus, A10; 18 h, loss of 50% of interphase microtubules. The method, then: We investigated the microtubule depolymerization and the antiproliferative activities of compounds 4–14 (Table 2). […] We next evaluated the importance of the 4′-OMe group of compound 4 by replacing it with an isosteric 4′-SMe (5). […] Clearly, this further substantiated the importance of an S in the scaffold over an NH.
The effects of the compounds on cellular microtubules were evaluated in A-10 cells using indirect immunofluorescence microscopy. These cells were obtained from the American Type Culture Collection (ATCC) (Manassas, VA, USA). Cells were treated with the compounds of interest for 18 h, and the cells fixed with cold MeOH and microtubule structures were visualized using a β-tubulin antibody (Sigma-Aldrich, St. Louis, MO, USA). The concentration that caused loss of 50% of the interphase microtubules was defined as the EC50 and calculated as previously described. These values represent an average of at least three independent experiments.

For another data set, the system named is HeLa cells. Put plainly: SRB assay in HeLa cells. The class given is cell-based. The conditions noted are these: Homo sapiens, read-out: IC50 ± SD in HeLa. The method, then:
Compounds 4–8, 10, 12, and 13 were evaluated for their abilities to overcome βIII-tubulin mediated drug resistance using an isogenic HeLa cell line pair (Table 4). […] The Rr values (Table 4) were calculated by dividing the IC50 of the βIII-tubulin expressing line by the IC50 obtained in the parental HeLa cells.
The antiproliferative and cytotoxic effects of the compounds in cancer cells were evaluated using the SRB assay as previously described. MDA-MB-435 cells were obtained from the Lombardi Cancer Center of Georgetown University (Washington, DC, USA). SK-OV-3 and HeLa cells were purchased from ATCC. Details about the generation of the SK-OV-3 MDR1-M6/6 and HeLa WTβIII cells were described previously. The IC50 values represent an average of three independent experiments, each conducted using triplicate points.
HeLa, A-10, SK-OV-3, and SK-OV-3 MDR1-M6/6 cells were grown in Basal Medium Eagle (Sigma-Aldrich, St. Louis, MO, USA) supplemented with 10% FBS (Hyclone, GE Life Sciences, Logan, UT, USA) 1% GlutaMAX (Gibco, Life Technologies, Waltham, MA, USA) and 50 µg/mL gentamycin (Life Technologies, USA). HeLa WTβIII cells were grown in Dulbecco’s Modified Eagle Medium (Life Technologies) supplemented with 10% FBS and 50 µg/mL gentamycin. MDA-MB-435 cells were maintained in Improved Minimum Essential Medium (Life Technologies) supplemented with 10% FBS and 25 µg/mL gentamycin. All cells were grown at 37 °C in a humidified environment with 5% CO2.
For orientation: The SRB assay estimates cell density from bound dye.

For data set [1], the system named is NCI-60 cancer cell line panel. Put plainly: NCI-60 cancer cell line panel (overall). Format: cell-based. The settings on record: Homo sapiens; 40 most sensitive of the 60 cancer cell lines. From the text: (§1) Compound 4 had better potency than the lead compound 1 in 50 cancer cell lines. (better by 5 to 6-fold in leukemia, 2 to 17-fold in NSCLC, 2 to 6-fold in colon cancer, 2 to 5-fold in CNS cancer, 2 to 25-fold in melanoma, 2 to 5-fold in ovarian cancer, 2 to 9-fold in renal cancer, 2 to 5-fold in prostate cancer, and 2 to 6-fold in breast cancer compared to lead compound 1).

For the next data set, the system named is MDA-MB-435 tumors. The data set can be described thus: MDA-MB-435 xenograft model. Format: in vivo, nude mice. The conditions noted are these: 75 mg/kg i.p. 3 × a week. The method, then:
Compound 4 was selected for further evaluation in an in vivo xenograft mouse study in light of its nanomolar potency in vitro in the NCI-60 cancer cell line panel and its potent microtubule depolymerization activity. The in vivo effects of 4 were tested in the MDA-MB-435 xenograft model (Figure 5).
MDA-MB-435 tumor fragments were implanted s.c. into the flanks of female nude mice. […] Compound 4 was dissolved in a 50:50 Cremophor EL/DMSO mixture and further dissolved in PBS for a final concentration of 10:10:80 Cremophor EL:DMSO:PBS (v/v). […] Tumor volumes and mouse weights were measured 2–3 times a week. A two-way ANOVA with Dunnett’s post-hoc tests including all treatment groups in the trial was used to determine significant differences in tumor volumes between drug-treated and untreated control groups on each measurement day. These animal studies were performed at the University of Texas Health Science Center in San Antonio in compliance with an approved Institutional Animal Care and Use protocol.
MDA-MB-435 tumors were implanted into the flanks of nude mice and allowed to grow until they reached a volume of ~200 mm^3. […] Tumor volumes and mouse weights were measured 2–3 times a week. Statistical significance was evaluated by two-way ANOVA (time vs. drug) with Dunnett’s post-hoc tests. A statistically significant difference in tumor volume was detected on day 14 between mice treated with 4 (* p = 0.0384) and untreated control tumors.

Another data set has as its system MOLT-4. Put plainly: NCI-60 growth inhibition, MOLT-4. The class given is cell-based. The settings on record: Homo sapiens, Leukemia.
From the text: as §1

The next data set concerns RPMI-8226. The data set can be described thus: NCI-60 growth inhibition, RPMI-8226. The class given is cell-based. The conditions noted are these: Homo sapiens, Leukemia.
From the text: as §1

The next data set has as its system HOP-92. The data set can be described thus: NCI-60 growth inhibition, HOP-92. The class given is cell-based. The settings on record: Homo sapiens, NSCLC.
From the text: as §1

The next data set relates to NCI-H226. The data set can be described thus: NCI-60 growth inhibition, NCI-H226. The class given is cell-based. The conditions noted are these: Homo sapiens, NSCLC.
From the text: as §1

Another data set deals with NCI-H522. The data set can be described thus: NCI-60 growth inhibition, NCI-H522. Format: cell-based. The settings on record: Homo sapiens, NSCLC.
From the text: as §1

For a further data set, the system named is HCT-116. Put plainly: NCI-60 growth inhibition, HCT-116. The class given is cell-based. The conditions noted are these: Homo sapiens, Colon Cancer.
From the text: as §1

In another data set the test system is HT29. Put plainly: NCI-60 growth inhibition, HT29. The conditions noted are these: Homo sapiens, HT-29, Colon Cancer. Format: cell-based.
From the text: as §1

The subject of the next data set is KM12. The data set can be described thus: NCI-60 growth inhibition, KM12. The class given is cell-based. The settings on record: Homo sapiens, Colon Cancer.
From the text: as §1

A further data set concerns SF-539. The data set can be described thus: NCI-60 growth inhibition, SF-539. The class given is cell-based. The settings on record: Homo sapiens, CNS Cancer.
From the text: as §1

A further data set deals with SNB-19. The data set can be described thus: NCI-60 growth inhibition, SNB-19. The class given is cell-based. The conditions noted are these: Homo sapiens, CNS Cancer.
From the text: as §1

A further data set concerns SNB-75. The data set can be described thus: NCI-60 growth inhibition, SNB-75. Format: cell-based. The conditions noted are these: Homo sapiens, CNS Cancer.
From the text: as §1

The test system of the next data set is U251. The data set can be described thus: NCI-60 growth inhibition, U251. The class given is cell-based. The settings on record: Homo sapiens, U-251, CNS Cancer.
From the text: as §1

The subject of a further data set is DU-145. Put plainly: NCI-60 growth inhibition, DU-145. The settings on record: Homo sapiens, Prostate Cancer. Format: cell-based.
From the text: as §1

The next data set deals with MALME-3M. Put plainly: NCI-60 growth inhibition, MALME-3M. The conditions noted are these: Homo sapiens, Melanoma. The class given is cell-based.
From the text: as §1

The next data set relates to SK-OV-3. Put plainly: NCI-60 growth inhibition, SK-OV-3. Format: cell-based. The settings on record: Homo sapiens, Ovarian Cancer.
From the text: as §1

In a further data set the test system is 786-0. Put plainly: NCI-60 growth inhibition, 786-0. The conditions noted are these: Homo sapiens, Renal Cancer. Format: cell-based.
From the text: as §1

A further data set has as its system RXF 393. The data set can be described thus: NCI-60 growth inhibition, RXF 393. The conditions noted are these: Homo sapiens, Renal Cancer. The class given is cell-based.
From the text: as §1

A further data set concerns MCF7. The data set can be described thus: NCI-60 growth inhibition, MCF7. Format: cell-based. The settings on record: Homo sapiens, Breast Cancer.
From the text: as §1

For `COc1ccc(N(C)c2nc(N)nc3sc4c(c23)CCCC4)cc1` [Compound 4, N4-(4-methoxyphenyl)-N4-methyl-5,6,7,8-tetrahydrobenzo[4,5]thieno[2,3-d]pyrimidine-2,4-diamine], in the data set with A-10 cells, the EC50 is 19 nM. In addition, in the data set with HeLa cells, the concentration for half-maximal inhibition (IC50) was 13.5 ± 1.5 nM. The GI50 is ~10 nM in [1]; 8.8 nM in the data set on MOLT-4; 12.7 nM in the data set with RPMI-8226; 14.1 nM with HOP-92; 17.5 nM in the data set on NCI-H226; 6.87 nM with NCI-H522. In addition, the concentration for 50% growth inhibition (GI50) in the data set with HCT-116 stood at 5.46 nM; with HT29, 6.21 nM; in the data set on KM12 it was 13.4 nM; in the data set on SF-539 it was 7.93 nM; with SNB-19, 9.04 nM; in the data set with SNB-75, 8.42 nM. The concentration for 50% growth inhibition (GI50) in the data set on U251 is 9.6 nM; in the data set on DU-145, 15.6 nM; with MALME-3M it was 12.2 nM; with SK-OV-3 it was 15.6 nM; in the data set on 786-0, 12.4 nM; with RXF 393, 7.65 nM. Further, halving of growth in the data set with MCF7 (GI50) required 8.01 nM. The “Antitumor effects on MDA-MB-435 tumor volume vs control” value in the data set on MDA-MB-435 tumors (day 14) was “statistically significant antitumor effects”. Moreover, the Weight loss result in the data set with MDA-MB-435 tumors (nude mice) is on record as “moderate weight loss”.
